Reference: article PMC12735872, “Development of ^18F/^11C-Labeled Pyrrolo-Pyridine/Pyrimidine LRRK2 Selective PET Radioligands” (Pharmaceuticals, 2025)
Blank lines part the entries; values can stand above or below the compound they belong to.

Columns and labels:
cynomolgus monkey brain = experiment: In vivo PET imaging in cynomolgus monkeys; parameters: VT/fp: unit not given beside the values; VT: unit not given here
Description: PET measurements were led using a high-resolution research tomograph (HRRT) from Siemens Molecular Imaging (Knoxville, TN, USA). List mode data were reconstructed using the ordinary Poisson-3D-ordered subset expectation maximization (OP-3D-OSEM) algorithm, with 10 repetitions and 16 subsets while modeling the point spread function (PSF). The in-plane resolution accomplished with OP-3D-OSEM and PSF was 1.5 mm full width at half maximum (FWHM) at the center of the field of view (FOV) and 2.4 mm at 10 cm off-center.
The study was approved by the Animal Ethics Committee of the Swedish Animal Welfare Agency and was performed according to “Guidelines for planning, conducting and documenting experimental research” (Dnr 5.2.18-4170/14 issued on 11 April 2014) of the KI as well as the “Guide for the Care and Use of Laboratory Animals” [26]. NHPs were supplied by the Astrid Fagraeus Laboratory (AFL) of the Swedish Institute for Infectious Disease Control (SMI), Solna, Sweden. Anesthesia was brought by intramuscular injection of ketamine hydrochloride (approximately 10 mg/kg) at AFL and continued with a mixture of sevoflurane (0–8.0%), oxygen, and medical air through endotracheal intubation at the KI PET center. The NHP head was immobilized using a homemade fixation device. Body temperature was maintained with a Bair Hugger model 505 (Arizant Healthcare, Eden Prairie, MN, USA) and monitored via an esophageal thermometer. ECG, heart rate, respiratory rate, blood pressure, and oxygen saturation were continuously examined throughout the experiments. The fluid balance was retained with continuous infusion of saline.
A 6 min transmission scan was performed before the injection of the radioligand using a single Cs-137 source. List mode data was acquired continuously for 93 min following intravenous administration of the radioligand. Images were reconstructed into 38 frames with varying intervals: […].
For all PET measurements, radioligands were administered via intravenous injection. Regions of interest (ROIs) were manually delineated on MRI images for each NHP, for the whole brain, cerebellum, caudate, putamen, thalamus, frontal cortex, temporal cortex, amygdala, posterior cingulate cortex, anterior cingulate cortex, hippocampus, occipital cortex, parietal cortex, ventral striatum, and insula. The summed PET images over the entire duration were co-registered with the individual NHP’s MRI image. After applying the co-registration parameters to the dynamic PET data, time–activity curves were generated for each brain region for every PET measurement. The standardized uptake value (SUV) was calculated for each brain region. The total distribution volume (VT) for all three radioligands were derived using one-tissue compartment (1-TC) and two-tissue compartment (2-TC) models.
On two separate occasions, PET measurements were performed after intravenous administration of GEN-7915 or PFE-360 with a slow infusion in one NHP (NHP2). The infusion lasted for 2 min, starting 30 min before PET scanning. The pretreatment formulations were prepared by dissolving it in DMSO (5%), Kolliphor EL (15%), and PBS (80%), and the pH of the final formulation was approximately 4.5–5.0. An automated blood sampling system (ABSS) measured continuous radioactivity for the first 3 min following the radioligand injection, while manual blood samples were taken at 4, 15, 30, 60, and 90 min post-injection to measure the radioactivity and metabolism.

[1] = Stability of formulated radioligand in PBS (analytical HPLC); type: physicochemical; settings: pH 7.4, for 120 min
Method: The radiochemical purity and stability of all three radioligands ([^11C]3, [^18F]1 and [^18F]2) were determined using analytical HPLC coupled with an XBridge analytical column (C18 5 µm, 4.6 × 150 mm particle size), a Merck-Hitachi L-7100 pump, an L-7400 UV detector, and a GM tube for radioactivity detection (VWR International). A mixture of acetonitrile (25%) and HCO2NH4 (0.1 M aq. solution) (75%) with a flow rate of 2 mL/min was used as HPLC isocratic mobile phase. The HPLC liquid flow was monitored using a UV absorbance detector (λ = 254 nm) in conjunction with a radioactive detector (BETA-flow, Beckman, Fullerton, CA, USA). All three radioligands were eluted with a retention time (tR) of 4.0–4.5 min, and the total run time of the HPLC program was 9 min. The identity of the radiolabeled compound was confirmed by co-injecting the corresponding authentic reference standard.

LRRK2 = experiment: In vitro autoradiography, NHP brain slices; type: binding; settings: baseline
Method: Whole brain hemispheres were sectioned into horizontal slices with a thickness of 100 µm using a Leica cryomacrocut system. The autoradiographic procedures followed the same protocols established in previous studies conducted in our laboratory. The whole-hemisphere sections of 100 micron thickness were incubated for 90 min at room temperature with their corresponding radiotracer (4 MBq/200 mL) in TRIS buffer (pH 7.4) containing sodium chloride (120 mM), potassium chloride (5 mM), calcium chloride (2 mM), and albumin (0.1% w/v). After incubation, sections were washed three times in the same buffer at room temperature for five minutes each, briefly dipped in ice-cold distilled water, dried, and then placed in the phosphor imaging plates. Binding density standards were prepared by serial dilution of the radioligand stock solution in the assay buffer. Readings were taken with the Fujifilm BAS-5000 (Fujifilm, Tokyo, Japan), while quantitative analysis was conducted with the Multi Gauge 3.2 image analysis software (Fujifilm, Tokyo, Japan). For blocking experiments, adjacent brain sections were co-incubated with LuAF66583 (0.1 µM or 10 µM). […] The thickness differed from human tissue (20 µm).

[2] = ACC, 1-TC model, pretreatment GEN-7915 (40 mg/kg)
[3] = ACC, 1-TC model, pretreatment PFE-360 (0.5 mg/kg)
[4] = ACC, 2-TC model, pretreatment GEN-7915 (40 mg/kg)
[5] = ACC, 2-TC model, pretreatment PFE-360 (0.5 mg/kg)
[6] = AMY, 1-TC model, pretreatment GEN-7915 (40 mg/kg)
[7] = AMY, 1-TC model, pretreatment PFE-360 (0.5 mg/kg)
[8] = AMY, 2-TC model, pretreatment GEN-7915 (40 mg/kg)
[9] = AMY, 2-TC model, pretreatment PFE-360 (0.5 mg/kg)
[10] = CAU, 1-TC model, pretreatment GEN-7915 (40 mg/kg)
[11] = CAU, 1-TC model, pretreatment PFE-360 (0.5 mg/kg)
[12] = CAU, 2-TC model, pretreatment GEN-7915 (40 mg/kg)
[13] = CAU, 2-TC model, pretreatment PFE-360 (0.5 mg/kg)
[14] = CB, 1-TC model, pretreatment GEN-7915 (40 mg/kg)
[15] = CB, 1-TC model, pretreatment PFE-360 (0.5 mg/kg)
[16] = CB, 2-TC model, pretreatment GEN-7915 (40 mg/kg)
[17] = CB, 2-TC model, pretreatment PFE-360 (0.5 mg/kg)
[18] = FC, 1-TC model, pretreatment GEN-7915 (40 mg/kg)
[19] = FC, 1-TC model, pretreatment PFE-360 (0.5 mg/kg)
[20] = FC, 2-TC model, pretreatment GEN-7915 (40 mg/kg)
[21] = FC, 2-TC model, pretreatment PFE-360 (0.5 mg/kg)
[22] = PUT, 1-TC model, pretreatment GEN-7915 (40 mg/kg)
[23] = PUT, 1-TC model, pretreatment PFE-360 (0.5 mg/kg)
[24] = PUT, 2-TC model, pretreatment GEN-7915 (40 mg/kg)
[25] = PUT, 2-TC model, pretreatment PFE-360 (0.5 mg/kg)
[26] = THA, 1-TC model, pretreatment GEN-7915 (40 mg/kg)
[27] = THA, 1-TC model, pretreatment PFE-360 (0.5 mg/kg)
[28] = THA, 2-TC model, pretreatment GEN-7915 (40 mg/kg)
[29] = THA, 2-TC model, pretreatment PFE-360 (0.5 mg/kg)

VT (cynomolgus monkey brain; ACC, 1-TC model, Baseline): 6.03
VT/fp (cynomolgus monkey brain; ACC, 1-TC model, Baseline): 17.7
VT (cynomolgus monkey brain; [2]): 8.50
VT/fp (cynomolgus monkey brain; [2]): 20.9
VT (cynomolgus monkey brain; [3]): 9.28
VT/fp (cynomolgus monkey brain; [3]): 20.2
VT (cynomolgus monkey brain; ACC, 2-TC model, Baseline): 6.04
VT (cynomolgus monkey brain; [4]): 8.71
VT/fp (cynomolgus monkey brain; [4]): 21.4
VT (cynomolgus monkey brain; [5]): 9.39
VT/fp (cynomolgus monkey brain; [5]): 20.4
VT (cynomolgus monkey brain; AMY, 1-TC model, Baseline): 6.15
VT/fp (cynomolgus monkey brain; AMY, 1-TC model, Baseline): 18.1
VT (cynomolgus monkey brain; [6]): 7.29
VT/fp (cynomolgus monkey brain; [6]): 17.9
VT (cynomolgus monkey brain; [7]): 7.56
VT/fp (cynomolgus monkey brain; [7]): 16.4
VT (cynomolgus monkey brain; AMY, 2-TC model, Baseline): 6.23
VT/fp (cynomolgus monkey brain; AMY, 2-TC model, Baseline): 18.3
VT (cynomolgus monkey brain; [8]): 7.36
VT/fp (cynomolgus monkey brain; [8]): 18.1
VT (cynomolgus monkey brain; [9]): 7.78
VT/fp (cynomolgus monkey brain; [9]): 16.9
VT (cynomolgus monkey brain; CAU, 1-TC model, Baseline): 5.83
VT/fp (cynomolgus monkey brain; CAU, 1-TC model, Baseline): 17.2
VT (cynomolgus monkey brain; [10]): 7.78
VT/fp (cynomolgus monkey brain; [10]): 19.1
VT (cynomolgus monkey brain; [11]): 8.50
VT/fp (cynomolgus monkey brain; [11]): 18.5
VT (cynomolgus monkey brain; CAU, 2-TC model, Baseline): 5.87
VT/fp (cynomolgus monkey brain; CAU, 2-TC model, Baseline): 17.3
VT (cynomolgus monkey brain; [12]): 7.89
VT/fp (cynomolgus monkey brain; [12]): 19.4
VT (cynomolgus monkey brain; [13]): 8.50
VT/fp (cynomolgus monkey brain; [13]): 18.5
VT (cynomolgus monkey brain; CB, 1-TC model, Baseline): 4.13
VT/fp (cynomolgus monkey brain; CB, 1-TC model, Baseline): 12.2
VT (cynomolgus monkey brain; [14]): 5.03
VT/fp (cynomolgus monkey brain; [14]): 12.3
VT (cynomolgus monkey brain; [15]): 5.67
VT/fp (cynomolgus monkey brain; [15]): 12.3
VT (cynomolgus monkey brain; CB, 2-TC model, Baseline): 4.41
VT/fp (cynomolgus monkey brain; CB, 2-TC model, Baseline): 13.0
VT (cynomolgus monkey brain; [16]): 5.08
VT/fp (cynomolgus monkey brain; [16]): 12.5
VT (cynomolgus monkey brain; [17]): 5.69
VT/fp (cynomolgus monkey brain; [17]): 12.4
VT (cynomolgus monkey brain; FC, 1-TC model, Baseline): 5.26
VT/fp (cynomolgus monkey brain; FC, 1-TC model, Baseline): 15.5
VT (cynomolgus monkey brain; [18]): 6.53
VT/fp (cynomolgus monkey brain; [18]): 16.0
VT (cynomolgus monkey brain; [19]): 7.68
VT/fp (cynomolgus monkey brain; [19]): 16.7
VT (cynomolgus monkey brain; FC, 2-TC model, Baseline): 5.26
VT/fp (cynomolgus monkey brain; FC, 2-TC model, Baseline): 15.5
VT (cynomolgus monkey brain; [20]): 6.74
VT/fp (cynomolgus monkey brain; [20]): 16.5
VT (cynomolgus monkey brain; [21]): 7.72
VT/fp (cynomolgus monkey brain; [21]): 16.8
Brain uptake (cynomolgus monkey brain; PET, iv, baseline): > 3 %ID
Brain washout (cynomolgus monkey brain; PET, iv, baseline): rapid washout
Regional distribution of brain uptake (cynomolgus monkey brain; PET, iv, baseline): regional differences in uptake
VT (cynomolgus monkey brain; PUT, 1-TC model, Baseline): 5.71
VT/fp (cynomolgus monkey brain; PUT, 1-TC model, Baseline): 16.8
VT (cynomolgus monkey brain; [22]): 7.56
VT/fp (cynomolgus monkey brain; [22]): 18.6
VT (cynomolgus monkey brain; [23]): 8.25
VT/fp (cynomolgus monkey brain; [23]): 17.9
VT (cynomolgus monkey brain; PUT, 2-TC model, Baseline): 5.89
VT/fp (cynomolgus monkey brain; PUT, 2-TC model, Baseline): 17.3
VT (cynomolgus monkey brain; [24]): 7.71
VT/fp (cynomolgus monkey brain; [24]): 18.9
VT (cynomolgus monkey brain; [25]): 8.25
VT/fp (cynomolgus monkey brain; [25]): 17.9
VT (cynomolgus monkey brain; THA, 1-TC model, Baseline): 4.80
VT/fp (cynomolgus monkey brain; THA, 1-TC model, Baseline): 14.1
VT (cynomolgus monkey brain; [26]): 6.05
VT/fp (cynomolgus monkey brain; [26]): 14.9
VT (cynomolgus monkey brain; [27]): 6.68
VT/fp (cynomolgus monkey brain; [27]): 14.5
VT (cynomolgus monkey brain; THA, 2-TC model, Baseline): 4.95
VT/fp (cynomolgus monkey brain; THA, 2-TC model, Baseline): 14.6
VT (cynomolgus monkey brain; [28]): 6.18
VT/fp (cynomolgus monkey brain; [28]): 15.2
VT (cynomolgus monkey brain; [29]): 6.68
VT/fp (cynomolgus monkey brain; [29]): 14.5
Stability in PBS buffer [1]: demonstrated stability
Binding of radioligand in brain slices (ARG) (LRRK2): clear binding
Compound: C[C@@H]1C[C@@H]([18F])CN1c1c(C#N)c2c(N)nccc2n1C [[^18F]1, 4-Amino-2-((2R,4R)-4-[^18F]fluoro-2-methylpyrrolidin-1-yl)-1-methyl-1H-pyrrolo[3,2-c]pyridine-3-carbonitrile]

Brain uptake at peak (cynomolgus monkey brain; PET, iv, baseline): 3.8–4.4 %ID
Brain washout (cynomolgus monkey brain; PET, iv, baseline): fast washout
Time to reach half the peak brain level (cynomolgus monkey brain; PET, iv, baseline): ≤ 20 min
Stability in PBS buffer [1]: demonstrated stability
Binding of radioligand in brain slices (ARG) (LRRK2): displayed binding
Compound: C[C@@H]1C[C@@H]([18F])CN1c1c(C#N)c2c(N)ncnc2n1C [[^18F]2, 4-Amino-6-((2R,4R)-4-[^18F]fluoro-2-methyl Pyrrolidin-1-yl)-7-methyl-7H-pyrrolo[2,3-d]pyrimidine-5-carbonitrile]
Regional distribution of brain uptake (cynomolgus monkey brain; PET, iv, baseline): relatively uniform distribution across all the brain regions
